Laboratory results as given in article PMC6009866, “Inhibition behaviours of some phenolic acids on rat kidney aldose reductase enzyme: an in vitro study” (Journal of Enzyme Inhibition and Medicinal Chemistry, 2017).
Entries after “also recorded” stand apart in the source; their conditions may differ.

Columns and labels:
[1] = biological target: T1, rat kidney aldose reductase (Rattus norvegicus, UniProt P07943); assay: In vitro inhibition of purified rat kidney aldose reductase (NADPH absorbance decrease at 340 nm); assay type: biochemical; details: for Inhibition type: from Lineweaver-Burk graph, substrate DL-glyceraldehyde; for IC50: purified rat kidney AR, 10 mM DL-glyceraldehyde, 0.5 mM NADPH, pH 6.2, from Activity%-[Inhibitor] graphs; for Inhibition effect (in words): rat kidney AR, compared to the other phenolic acids of the study
T1 construct: Purified rat kidney aldose reductase enzyme; from tissue; host or cells: rat kidney
Protocol: Aldose reductase activity was assayed by following the absorbance decrease of NADPH at 340 nm spectrophotometrically.
The dialyzed enzyme solution was loaded onto the DE-52 Cellulose anion exchange column previously equilibrated with 10 mM Na-phosphate buffer (pH 7.4). […] Eluted fractions were collected, and the enzyme activity was checked at 340 nm. The fractions with the enzyme activity were pooled and mixed with glycerol. Then this enzyme solution was loaded onto the Sephadex G-100 column equilibrated with 10 mM Na-phosphate buffer (pH 7.4). Fractions were analyzed for both protein amount (280 nm) and enzyme activity (340 nm). […] The enzyme activity was checked at 340 nm in collected fractions, and the tubes with enzyme activity were combined. All purification procedures were performed at 4 °C. SDS polyacrylamide gel electrophoresis was done to the control of enzyme purity.
In inhibition studies, aldose reductase activity was assayed by following the change in absorbance at 340 nm, spectrophotometrically. One millilitre of the reaction mix contained 0.2 M Na-phosphate buffer (pH = 6.2), 10 mM DL-glyceraldehyde, 0.5 mM NADPH and enzyme solution[45]. AR activity was measured in the presence of different concentrations of phenolic acids. A control sample without inhibitor was taken as 100%, and for each inhibitor, an Activity%-[Inhibitor] graphs were drawn. IC50 values were determined from Activity%-[Inhibitor] graphs. For determination of the Ki constant, three different phenolic acid concentrations were used, and DL-glyceraldehyde was also used as a substrate at five different concentrations. […] Analysis of data obtained was made by t-test and they are given as X ± SD.

[2] = test system: human placental aldose reductase; parameters: method as in PMID 2505942; details: cited from earlier work
[3] = Lineweaver-Burk graph, three inhibitor concentrations, five DL-glyceraldehyde concentrations, X ± SD
[4] = mixed-type inhibition, second constant, Lineweaver-Burk graph, X ± SD

Ki [1, 3] | Inhibition type [1] | IC50 [1] | Ki [1, 4] | Ki' [1, 4] | Structure (SMILES) | Inhibition effect (in words) [1] | Inhibition effect (in words) [2] | Inhibition type [2]
53.1 ± 2 µM | Uncompetitive | 57 µM |  |  | O=C(O)/C=C/c1ccc(O)cc1 [p-Coumaric acid, trans-4-Hydroxycinnamic acid] |  |  | 
0.598 ± 0.148 µM | Noncompetitive | 0.5 µM |  |  | O=C(OCC1OC(OC(=O)c2cc(O)c(O)c(OC(=O)c3cc(O)c(O)c(O)c3)c2)C(OC(=O)c2cc(O)c(O)c(OC(=O)c3cc(O)c(O)c(O)c3)c2)C(OC(=O)c2cc(O)c(O)c(OC(=O)c3cc(O)c(O)c(O)c3)c2)C1OC(=O)c1cc(O)c(O)c(OC(=O)c2cc(O)c(O)c(O)c2)c1)c1cc(O)c(O)c(OC(=O)c2cc(O)c(O)c(O)c2)c1 (stereo not shown) [Tannic acid] | strong inhibition effect; also recorded: potent inhibition effect | potent inhibitor | mixed type
1.56 ± 0.436 µM | mixed type | 5.47 µM | 28.05 µM | 28.05 ± 10.210 µM | O=C(/C=C/c1ccc(O)c(O)c1)O[C@@H]1C[C@](O)(C(=O)O)C[C@@H](O)[C@H]1O [Chlorogenic acid] | strong inhibition effect |  | 
52.2 ± 20.8 µM | Noncompetitive | 50 µM |  |  | O=C(O)c1ccc(O)cc1 [4-Hydroxybenzoic acid] |  |  | 
103 ± 56.3 µM | Noncompetitive | 86 µM |  |  | COc1cc(C(=O)O)ccc1O [Vanillic acid, 4-hydroxy-3-methoxybenzoic acid] |  |  | 
107 ± 21.6 µM | Noncompetitive | 95 µM |  |  | COc1cc(C(=O)O)cc(OC)c1O [Syringic acid] |  |  | 
176 ± 24.5 µM | Noncompetitive | 150 µM |  |  | O=C(O)c1cccc(O)c1 [3-Hydroxybenzoic acid, 3-hydroxybenzoic acid] |  |  | 
72.5 ± 29.9 µM | Noncompetitive | 69 µM |  |  | COc1cc(C=CC(=O)O)ccc1O [Ferullic acid, 4-Hydroxy-3-methoxycinnamic acid] |  |  | 
43.4 µM | Noncompetitive | 33 µM |  |  | COc1cc(C=CC(=O)O)cc(OC)c1O [Sinapic acid, 3,5-Dimethoxy-4-hydroxycinnamic acid] |  |  | 
127 ± 22 µM | Noncompetitive | 110 µM |  |  | O=C(O)c1cc(O)cc(O)c1 [α-Resorcylic acid, 3,5-dihydroxybenzoic acid] |  |  | 

Structure (SMILES) | Ki [1, 3] | Inhibition type [1] | IC50 [1] | Ki [1, 4] | Ki' [1, 4] | Inhibition effect (in words) [1] | Inhibition effect (in words) [2] | Inhibition type [2]
O=C(O)c1cc(O)c(O)c(O)c1 [Gallic acid] | 219 ± 56.3 µM | Noncompetitive | 176 µM |  |  | weak inhibition effect |  | 
O=C(O)c1ccc(O)c(O)c1 [Protocatechuic acid, 3,4-dihydroxybenzoic acid] | 46.3 ± 31.5 µM | Noncompetitive | 48 µM |  |  |  |  | 
